pIC50: −log10 of the molar value.
How the values were obtained:
[1] = test system: HCT-116; assay: Antiproliferative activity against human HCT-116 cells incubated for 48 hrs by MTT assay; format: functional, cell-based; conditions: HCT-116, 48 h
[2] = test system: B16-F10; assay: Antiproliferative activity against mouse B16-F10 cells incubated for 48 hrs by MTT assay; format: functional, cell-based; conditions: B16-F10, 48 h
[3] = test system: B16-F10; assay: Induction of cell cycle arrest in mouse B16-F10 cells assessed as accumulation at G2 phase at 25 nM incubated for 24 hrs by PI staining based flow cytometry (reference value: 23.04 %); format: functional
[4] = test system: B16-F10; assay: Induction of cell cycle arrest in mouse B16-F10 cells assessed as accumulation at G1 phase at 50 nM incubated for 24 hrs by PI staining based flow cytometry (reference value: 52.77 %); format: functional
[5] = test system: B16-F10; assay: Induction of cell cycle arrest in mouse B16-F10 cells assessed as accumulation at S phase at 50 nM incubated for 24 hrs by PI staining based flow cytometry (reference value: 21.79 %); format: functional
[6] = test system: B16-F10; assay: Induction of apoptosis in mouse B16-F10 cells assessed as viable cells at 10 nM incubated for 48 hrs by annexinV-FITC/PI staining based flow cytometry (reference value: 93.6 %); format: functional; conditions: read-out: Activity
[7] = test system: B16-F10; assay: Induction of apoptosis in mouse B16-F10 cells assessed as viable cells at 25 nM incubated for 48 hrs by annexinV-FITC/PI staining based flow cytometry (reference value: 93.6 %); format: functional; conditions: read-out: Activity
[8] = test system: B16-F10; assay: Induction of apoptosis in mouse B16-F10 cells assessed as late apoptotic cells at 50 nM incubated for 48 hrs by annexinV-FITC/PI staining based flow cytometry (reference value: 2.06 %); format: functional
[9] = Toxicity in C57 mouse allografted with mouse B16-F10 cells assessed as pathological damage in kidney at 10 mg/kg, ip administered consecutively for 14 days by H and E staining based analysis; format: organism-based; conditions: in vivo, 336 h, time 14 day
[10] = test system: B16-F10; assay: Immunomodulatory activity in mouse B16-F10 cells allografted in C57 mouse assessed as decrease in PD-L1 level at 10 mg/kg, ip administered consecutively for 14 days relative to control; format: functional; set-up: scale not given: the % may be the effect or the level left; conditions: time 14 day
[11] = test system: B16-F10; assay: Immunomodulatory activity in mouse B16-F10 cells allografted in C57 mouse assessed as increase in CD3-positive CD8-positive cells at 10 mg/kg, ip administered consecutively for 14 days (reference value: 6.66 %); format: functional; conditions: time 14 day
[12] = test system: HeLa; assay: cells; conditions: Homo sapiens, 48 h
Description: Antiproliferative activity against human HeLa cells incubated for 48 hrs by MTT assay

pIC50 [1]: 7.64
pIC50 [2]: 7.70
pIC50 [12]: 7.43
SMILES: COc1ccc2c(c1F)Cc1ccccc1N2C(=O)c1cc(OC)c(OC)c(OC)c1
Activity [3]: 43.79%
Activity [4]: 3.24%
Activity [5]: 24.31%
viability at 0.01 µM [6]: 91%
viability at 0.025 µM [7]: 70.4%
Activity [8]: 13.4%
Activity [9]: Non-Toxic
Activity [10]: ~10%
Activity [11]: 8.17%
